Legend:
[1] = target: T1, human neutrophil elastase (HNE) (Homo sapiens, UniProt P08246); assay: HNE Ki of CE compounds, tested as described in WO 96/16080; type: biochemical; conditions: read-out: HNE Ki
T1 sequence (P08246 30-267): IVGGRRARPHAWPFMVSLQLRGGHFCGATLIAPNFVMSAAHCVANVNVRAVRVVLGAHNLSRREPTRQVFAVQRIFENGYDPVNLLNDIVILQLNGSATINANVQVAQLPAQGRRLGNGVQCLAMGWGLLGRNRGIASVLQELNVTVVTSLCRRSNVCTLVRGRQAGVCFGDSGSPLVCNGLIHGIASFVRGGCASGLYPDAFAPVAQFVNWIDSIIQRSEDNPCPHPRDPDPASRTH

[2] = Blood level screening after oral dose; type: in vivo, Sprague-Dawley rats; conditions: rat, oral gavage 10 mg/kg; for concentration at 1 h / concentration at 3 h / concentration at 6 h: male, Sprague-Dawley, plasma; for concentration at 1 h: read-out: Plasma Levels (μM) 1 hr; for concentration at 3 h: read-out: Plasma Levels (μM) 3 hr; for concentration at 6 h: read-out: Plasma Levels (μM) 6 hr
Description: The inhibitors were dissolved or suspended in polyethylene glycol (PEG), PEG-400 or PEG:H2O:EtOH at a concentration of 10 mg/ml. Unfasted male Sprague-Dawley rats were given an oral dose of this solution by gavage. Rats received 10 mg inhibitor/kg body weight in a volume of 1 ml/kg. After 1,3 or 6 hr., the rats were killed with an overdose of urethane (2.5 g/kg; i.p.) and the blood collected in a heparinized tube via cardiac puncture. Red blood cells were separated from the plasma by centrifugation.
Depending on the inhibitor, one of four organics (ethyl acetate, toluene, isopropyl ether or methyl t-butyl ether) was used to extract the compound from the plasma. Inhibitor concentrations were measured by HPLC or LC/MS analysis.

[3] = tested on: polymorphoneucleocyte (PMN); assay: Extracellular Matrix (ECM) degradation assay; type: cell-based; conditions: PMN's stimulated with opsonized zymosan, 4 hr at 37° C.; for inhibition at 1 µM / ECM DATA % Inhibition 1 uM: 1 uM inhibitor; for inhibition at 5 µM / ECM DATA % Inhibition 5 uM: 5 uM inhibitor
Description: Forty-eight well plates on which extracellular matrix had been established were supplied to Cortech by Dr. Simon's group at the State University of New York at Stony Brook. Briefly, the plates were prepared as follows: R22 rat heart smooth muscle cells were seeded into wells at 2.5×10^4 cells/cm. The cells were fed every 4 days with Eagle's Minimal Essential Media supplemented with fetal bovine serum, tryptose phosphate broth, cefotaxime and streptomycin. At confluence, daily supplements of 50 ug/ml ascorbic acid were added for 8 to 10 days during the synthesis of the ECM layer. [^35S]sulfate and [^3H]proline were also added to the culture media to incorporate radiolabel into the matrix. Cells were later lysed with 25 mM NH4OH. Plates were washed three times with water and once with phosphate-buffered saline containing 0.02% NaN3. Plates were stored at 4° C. until use.
Matrix degradation assays were performed as follows: 0.40 ml of Hanks balance salt solution (HBSS) containing 1 or 5 uM test inhibitor (final concentration; diluted from DMSO stock solution; <2% DMSO final concentration) was added to the wells. After 30 minutes, 50 ul of a polymorphoneucleocyte (PMN) suspension was added resulting in 5×10^5 cells/well. PMN's were stimulated with opsonized zymosan. Zymosan particles were washed and suspended in 0.5 ml human serum for 1 hr at 37° C., vortexing every 15 min. The particles were then washed three times with HBSS and added to wells at a ratio of 10 particles/PMN in a volume of 50 ul. After a 4 hr incubation at 37° C., a 100 ul aliquot of the supernatant was withdrawn for scintillation counting. Following removal of the remaining supernatant, the residual ECM was solubilized with 0.5 ml 2M NaOH. The amount of tritium in this solubilized ECM was accessed by scintillation. ECM degradation data are expressed as (soluble counts released/total ECM counts)—(basal counts released without PMN's/total ECM counts).

Row | Structure (SMILES) | Ki [1] | concentration at 1 h [2] | concentration at 3 h [2] | concentration at 6 h [2] | inhibition at 1 µM [3] | inhibition at 5 µM [3] | Plasma Levels (μM) 1 hr [2] | Plasma Levels (μM) 3 hr [2] | Plasma Levels (μM) 6 hr [2] | ECM DATA % Inhibition 1 uM [3] | ECM DATA % Inhibition 5 uM [3]
1 | Cc1cccc(Cc2nnc(C(=O)C(NC(=O)CN3C(=O)C(N)N=C(c4ccc(Cl)cc4)c4ccccc43)C(C)C)o2)c1 [CE2224, (R,S)-3-Amino-2-oxo-5-(4-chlorophenyl)-1,4-benzodiazepine-N-[1-(2-[5-(3-methylbenzyl)-1,3,4-oxadiazolyl]carbonyl)-2-(R,S)-methylpropyl]acetamide] | 1 nM | 1.84 µM | 1.94 µM | 1.96 µM | 43.2% | 66.8% | – | – | – | – | –
2 | Cc1cccc(Cc2nnc(C(=O)[C@@H](NC(=O)CN3C(=O)CN=C(c4ccc(C(F)(F)F)cc4)c4ccccc43)C(C)C)o2)c1 [CE2237, 2-Oxo-5-(4-trifluoromethylphenyl)-1,4 benzodiazepine-N-[1-(2-[5-(3-methylbenzyl)-1,3,4-oxadiazolyl]carbonyl)-2-(S)-methylpropyl]acetamide] | 3 nM | 1.02 µM | 1.8 µM | 0.84 µM | 34.6% | 42.6% | – | – | – | – | –
3 | CC(C)[C@H](NC(=O)[C@@H]1CCCN1C(=O)[C@@H](NC(=O)OCc1ccccc1)C(C)C)C(=O)c1nnc(Cc2ccc3c(c2)OCO3)o1 [CE2177, (Benzyloxycarbonyl)-L-valyl-N-[1-(2-[5-(3,4-methylenedioxybenzyl)-1,3,4-oxadiazolyl]carbonyl)-2-(S)-methylpropyl]-L-prolinamide] | 0.016 nM | 0.393 µM | 0.41 µM | 0 µM | 74.2% | 76.8% | – | – | – | – | –
4 | Cc1cccc(Cc2nnc(C(=O)[C@@H](NC(=O)Cn3c(-c4ccc(F)cc4)ncc(N)c3=O)C(C)C)o2)c1 [CE2101, 2-[5-Amino-6-oxo-2-(4-fluorophenyl)-1,6-dihydro-1-pyrimidinyl]-N-[1-(2-[5(3-methylbenzyl)-1,3,4-oxadiazolyl]carbonyl)-2-(S)-methylpropyl]acetamide] | – | 1.24 µM | 1.37 µM | 1.04 µM | 44.6% | 51.2% | – | – | – | – | –
5 | Cc1cccc(Cc2nnc(C(=O)[C@@H](NC(=O)CN3C(=O)NC(C)(c4ccccn4)C3=O)C(C)C)o2)c1 (stereo partly drawn) [CE2216, [4-(R,S)-(2-Pyridyl)-4-(R,S)-methyl]-2,5-imidazolidinedione-N-[1-(2-[5-(3-methylbenzyl)-1,3,4-oxadiazolyl]carbonyl)-2-(S)-methylpropyl]acetamide] | 4.1 nM | – | – | – | – | – | 0.77 µM | 0.47 µM | 0.25 µM | 32.1% | 37.15%
6 | CC(C)[C@H](NC(=O)CN1C(=O)N[C@H](Cc2ccc(O)cc2)C1=O)C(=O)c1nnc(Cc2ccc3c(c2)OCO3)o1 [CE2256, 4-(R)-(4-Hydroxybenzyl)-2,5-imidazolidinedione-N-[1-(2-[5-(3,4-methylenedioxybenzyl)-1,3,4-oxadiazolyl]carbonyl)-2-(S)-methylpropyl]acetamide] | 16 nM | – | – | – | – | – | 0.9 µM | 0.33 µM | 0.2 µM | 24% | 47.8%
7 | Cc1cccc(Cc2nnc(C(=O)[C@@H](NC(=O)CN3C(=O)CNC3=O)C(C)C)o2)c1 [CE2238, 2,5-Imidazolidinedione-N-[1-(2-[5-(3-methylbenzyl)-1,3,4-oxadiazolyl]carbonyl)-2-(S)-methylpropyl]acetamide] | 162 nM | 2.57 µM | 1.74 µM | 1.03 µM | 10.1% | 18.8% | – | – | – | – | –
8 | Cc1cccc(Cc2nnc(C(=O)[C@@H](NC(=O)CN3C(=O)N[C@H](C(C)C)C3=O)C(C)C)o2)c1 [CE2174, 4-(R)-Isopropyl-2,5-imidazolidinedione-N-[1-(2-[5-(3-methylbenzyl)-1,3,4-oxadiazolyl]carbonyl)-2-(S)-methylpropyl]acetamide] | 15.2 nM | – | – | – | – | – | 1.86 µM | 0.97 µM | – | 1.49% | 18.3%
9 | Cc1cccc(Cc2nnc(C(=O)[C@@H](NC(=O)CN3C(=O)CN=C(c4ccc5c(c4)OCO5)c4ccccc43)C(C)C)o2)c1 [CE2248] | 3.1 nM | – | – | – | – | – | 1.65 µM | 1.58 µM | 1.22 µM | 39.4% | 63.2%
10 | Cc1cccc(Cc2nnc(C(=O)[C@@H](NC(=O)[C@@H]3CCCN3C(=O)[C@@H](NC(=O)OCc3ccccc3)C(C)C)C(C)C)o2)c1 [CE2072, (Benzyloxycarbonyl)-L-valyl-N-[1-(2-[5-(3-methylbenzyl)-1,3,4-oxadiazolyl]carbonyl)-2-(S)-methylpropyl]-L-prolinamide] | – | 0.277 µM | 0.115 µM | 0.061 µM | 64.8% | 74.5% | – | – | – | – | –
11 | Cc1cccc(Cc2nnc(C(=O)[C@@H](NC(=O)CN3C(=O)N[C@H](Cc4c[nH]c5ccccc45)C3=O)C(C)C)o2)c1 [CE2243, 4-(R)-(3-Indolemethylene)-2,5-imidazolidinedione-N-[1-(2-[5-(3-methylbenzyl)-1,3,4-oxadiazolyl]carbonyl)-2-(S)-methylpropyl]acetamide] | 11 nM | – | – | – | – | – | 2.801 µM | 2.104 µM | 1.598 µM | 48% | 54.9%
12 | Cc1cccc(Cc2nnc(C(=O)C(NC(=O)CN3C(=O)NC(c4ccccc4)C3=O)C(C)C)o2)c1 [CE2149, 5-(R,S)-Phenyl-2,4-imidazolidinedione-N-[1-(2-[5-(3-methylbenzyl)-1,3,4-oxadiazolyl]carbonyl)-2-(S)-methylpropyl]acetamide] | 0.28 nM | 0 µM | 0 µM | 0 µM | 51.3% | 55.9% | – | – | – | – | –
13 | Cc1cccc(Cc2nnc(C(=O)C(NC(=O)CN3C(=O)C(N)N=C(c4ccccc4Cl)c4cc(Cl)ccc43)C(C)C)o2)c1 [CE2229, (R,S)-3-Amino-2-oxo-5-(2-chlorophenyl)-1,4-(2′-chlorobenzodiazepine)-N-[1-(2-[5-(3-methylbenzyl)-1,3,4-oxadiazolyl]carbonyl)-2-(R,S)-methylpropyl]acetamide] | 9.5 nM | – | – | – | – | – | – | – | – | 31.25% | 48.2%
14 | CC1=NC(N)C(=O)N(CC(=O)NC(C(=O)c2nnc(Cc3cccc(C)c3)o2)C(C)C)c2ccccc21 [CE2226, (R,S)-3-Amino-2-oxo-5-methyl-1,4-benzodiazepine-N-[1-(2-[5-(3-methylbenzyl)-1,3,4-oxadiazolyl]carbonyl)-2-(R,S)-methylpropyl]acetamide] | 10.3 nM | – | – | – | 27.6% | 52.2% | – | – | – | – | –
15 | Cc1cccc(Cc2nnc(C(=O)[C@@H](NC(=O)Cn3c(-c4ccc(F)cc4)ncc(NC(=O)OCc4ccccc4)c3=O)C(C)C)o2)c1 [CE2095, 2-[5-[(Benzyloxycarbonyl)amino]-6-oxo-2-(4-fluorophenyl)-1,6-dihydro-1-pyrimidinyl]-N-[1-(2-[5-(3-methylbenzyl)-1,3,4-oxadiazolyl]carbonyl)-(S)-2-methylpropyl]acetamide] | 0.21 nM | – | – | – | 60.4% | 55.6% | – | – | – | – | –

— patent US6656911B2, “Serine protease inhibitors” (Cortech, Inc., priority 1994, dated 2003)
